pEC50, pKi: −log10 of the molar value.
Experiments:
[1] = biological target: T1, D128N mutant mouse delta opioid receptor (Mus musculus, UniProt P32300, D128N); assay: biochemical; format: binding
T1 construct: expressed in transfected cells; host or cells: COS-7 (transient, pCMV6c)

[2] = biological target: T2, H278N mutant mouse delta opioid receptor (Mus musculus, UniProt P32300, H278N); assay: Forskolin-stimulated cAMP accumulation, COS-7 cells, H278N mutant; format: cell-based
T2 construct: expressed in transfected cells; host or cells: COS-7 (transient, pCMV6c)
T2 sequence (P32300 whole entry H278N): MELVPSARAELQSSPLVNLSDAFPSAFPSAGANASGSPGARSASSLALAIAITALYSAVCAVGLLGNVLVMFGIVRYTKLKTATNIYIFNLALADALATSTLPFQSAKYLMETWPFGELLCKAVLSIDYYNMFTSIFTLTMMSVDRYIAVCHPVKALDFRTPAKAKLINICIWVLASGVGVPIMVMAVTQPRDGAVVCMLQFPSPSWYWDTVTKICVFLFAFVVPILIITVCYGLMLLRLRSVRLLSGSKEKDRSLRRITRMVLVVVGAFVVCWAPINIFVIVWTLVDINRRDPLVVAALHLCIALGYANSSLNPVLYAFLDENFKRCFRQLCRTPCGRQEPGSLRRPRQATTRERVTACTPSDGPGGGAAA
Protocol: (§1) Briefly, COS-7 cells were subcultured in 12-well culture plates. The cells were transfected 48 hrs. prior to the cAMP experiments. Culture medium was removed from the wells and replaced with 500 μl of fresh medium containing 0.5 mM isobutylmethylxanthine (IBMX). Cells were incubated for 20 min at 37° C. Medium was removed and replaced with fresh medium containing 0.5 mM IBMX, with or without 10 μM forskolin and various opioid agonists. The cells were incubated for 30 min at 37° C. Medium was removed and cells sonicated in the wells in 500 μl of 1NCl. The HCl was evaporated off in a Speed-Vac and the cAMP analyzed using a radioimmunoassay kit from NEN/Dupont (Wilmington, Del.).

cloned rat μ receptor = biological target: T3, cloned rat μ receptor (Rattus norvegicus, UniProt P33535); assay: biochemical; format: binding
T3 construct: expressed in transfected cells; host or cells: COS-7 (transient)
T3 sequence (P33535 whole entry): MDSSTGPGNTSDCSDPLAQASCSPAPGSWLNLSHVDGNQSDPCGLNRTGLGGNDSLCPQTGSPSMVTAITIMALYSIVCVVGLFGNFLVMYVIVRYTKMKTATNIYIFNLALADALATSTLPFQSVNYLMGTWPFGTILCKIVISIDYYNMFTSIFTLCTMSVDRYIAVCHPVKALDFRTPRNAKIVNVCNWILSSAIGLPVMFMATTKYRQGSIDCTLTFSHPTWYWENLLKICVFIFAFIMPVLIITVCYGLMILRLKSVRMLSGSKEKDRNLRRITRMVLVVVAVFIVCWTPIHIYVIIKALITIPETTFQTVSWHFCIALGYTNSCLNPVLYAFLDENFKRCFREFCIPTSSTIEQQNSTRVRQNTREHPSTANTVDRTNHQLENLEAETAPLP

[3] = biological target: T4, mouse delta opioid receptor aspartate 95 to asparagine mutant (Mus musculus, UniProt P32300, D95N); assay: Binding to delta receptor mutant with aspartate 95 converted to asparagine, COS-7 cells
T4 construct: expressed in transfected cells; host or cells: COS-7
T4 sequence (P32300 whole entry D95N): as the sequence (P32300 whole entry H278N) above, with D95N, N278H counted along it

[4] = biological target: T5, wild-type mouse delta opioid receptor (Mus musculus, UniProt P32300); assay: biochemical; format: binding
T5 construct: expressed in transfected cells; host or cells: COS-7 (transient, pCMV6c)
T5 sequence (P32300 whole entry): as the sequence (P32300 whole entry H278N) above, with N278H counted along it

[5] = biological target: T2, H278N mutant mouse delta opioid receptor; assay: biochemical; format: binding
cloned mouse δ receptor = biological target: T6, cloned mouse δ receptor (Mus musculus, UniProt P32300); assay: biochemical; format: binding
T6 construct: expressed in transfected cells
T6 sequence (P32300 whole entry): as the sequence (P32300 whole entry H278N) above, with N278H counted along it

cloned mouse κ receptor = biological target: T7, cloned mouse κ receptor (Mus musculus, UniProt P33534); assay: biochemical; format: binding
T7 construct: expressed in transfected cells
T7 sequence (P33534 whole entry): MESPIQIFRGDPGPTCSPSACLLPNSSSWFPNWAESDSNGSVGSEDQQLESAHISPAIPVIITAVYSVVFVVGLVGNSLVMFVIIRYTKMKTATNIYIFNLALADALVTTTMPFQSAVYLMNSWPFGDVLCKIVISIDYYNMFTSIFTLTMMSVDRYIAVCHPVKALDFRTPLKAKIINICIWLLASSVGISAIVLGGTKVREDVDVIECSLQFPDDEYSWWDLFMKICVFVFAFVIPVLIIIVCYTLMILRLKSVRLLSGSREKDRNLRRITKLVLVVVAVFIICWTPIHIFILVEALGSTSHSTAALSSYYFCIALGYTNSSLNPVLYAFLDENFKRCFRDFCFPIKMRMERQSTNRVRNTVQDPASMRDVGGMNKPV

[6] = biological target: T1, D128N mutant mouse delta opioid receptor; assay: Forskolin-stimulated cAMP accumulation, COS-7 cells, D128N mutant; format: cell-based
Protocol: as §1

MOP2 = biological target: T8, MOP2 (Mus musculus, UniProt P35377); format: cell-based
T8 construct: expressed in transfected cells; host or cells: COS-7 (transient)
T8 sequence (P35377 whole entry): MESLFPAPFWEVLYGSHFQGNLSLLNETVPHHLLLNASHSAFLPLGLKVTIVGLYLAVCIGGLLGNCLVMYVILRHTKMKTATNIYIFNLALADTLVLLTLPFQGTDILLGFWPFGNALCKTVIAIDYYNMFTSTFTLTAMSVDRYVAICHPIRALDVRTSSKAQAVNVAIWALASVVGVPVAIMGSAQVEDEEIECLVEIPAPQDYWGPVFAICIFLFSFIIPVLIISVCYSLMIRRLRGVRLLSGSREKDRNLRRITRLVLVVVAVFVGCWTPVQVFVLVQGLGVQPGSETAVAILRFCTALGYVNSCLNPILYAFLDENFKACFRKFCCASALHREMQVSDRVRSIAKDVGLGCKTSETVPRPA

[7] = biological target: T5, wild-type mouse delta opioid receptor; assay: Forskolin-stimulated cAMP accumulation, COS-7 cells, wild-type delta receptor; format: cell-based
Protocol: as §1

T1 sequence (P32300 whole entry D128N): as the sequence (P32300 whole entry H278N) above, with D128N, N278H counted along it

In the case of `CCC12CCN(CC3(O)CC3)C(Cc3ccc(O)cc31)C2(C)C` (racemic) [Bremazocine], the pKi [1] was 5.57, the pEC50 [2] was 8.82 and the pKi (cloned rat μ receptor) was 9.12. The “Affinity of aspartate 95 mutant and wild-type delta receptors compared” value [3] was “similar”, the pKi [4] was 7.24 and the pKi [5] was 8.77. The pKi (cloned mouse δ receptor) was 8.64, the pKi (cloned mouse κ receptor) was 10.05 and the pEC50 [6] was 7.10. The “Effect on forskolin-stimulated cAMP formation, MOP2” value (MOP2) was “no effect” and the pEC50 [7] was 8.13.

— US7235366B1 (priority 1993, dated 2007)
